According to ChEMBL document CHEMBL1139202, “Inhibition of mycobacterial arylamine N-acetyltransferase contributes to anti-mycobacterial activity of Warburgia salutaris” (Bioorg Med Chem, 2007):

Tested on: Mycobacterium tuberculosis
Assay: Antimycobacterial activity against wild type Mycobacterium bovis BCG after 21 days
Format: functional, organism-based
Conditions: variant bovis BCG

`CC(=O)O[C@@H]1C=C2C(=O)O[C@@H](O)[C@]2(O)[C@@]2(C)CCCC(C)(C)[C@H]12` was tested, and the Activity was “Dose-dependent effect”.
